Results published in the supplement of paper PMC10307832.

How the values were obtained:
Experiment in all cases: relative viability (nuclei count vs DMSO), 5 days (fraction); higher = more cells survive
[1] = compound: C[C@]12O[C@H](C[C@]1(O)CO)n1c3ccccc3c3c4c(c5c6ccccc6n2c5c31)CNC4=O [Lestaurtinib] + Cc1nc(Nc2ncc(C(=O)Nc3c(C)cccc3Cl)s2)cc(N2CCN(CCO)CC2)n1 [Dasatinib] (partner 0.075 µM)
Summary of the method: (§1)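 Dosing by pin tool came one day after lung cancer cell lines were seeded in 1536-well plates, using either one drug or a fixed anchor-drug dose plus five library-drug doses (not always all listed) in √10 steps. After 5 days, nuclei were counted on 4× images. Relative viability is treated-well nuclei count divided by vehicle-well nuclei count, and values are medians of duplicate plates.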

[2] = compound: C1=CC(=CC=C1C2=CC(=C(S2)NC(=O)N)C(=O)N)F [TPCA-1] + CS(=O)(=O)CCNCc1ccc(-c2ccc3ncnc(Nc4ccc(OCc5cccc(F)c5)c(Cl)c4)c3c2)o1 [Lapatinib] (partner 2 µM)
Summary of the method: as §1

[3] = compound: C1=CC(=CC=C1C2=CC(=C(S2)NC(=O)N)C(=O)N)F [TPCA-1] + C[C@@H](Oc1cc(-c2cnn(C3CCNCC3)c2)cnc1N)c1c(Cl)ccc(F)c1Cl [Crizotinib] (partner 1 µM)
Summary of the method: as §1

| Cell Line | relative viability ([1]; first compound 0.005 µM) | relative viability ([1]; first compound 0.01581 µM) | relative viability ([1]; first compound 0.05 µM) | relative viability ([1]; first compound 0.1581 µM) | relative viability ([1]; first compound 0.5 µM) | relative viability ([2]; first compound 0.04 µM) | relative viability ([2]; first compound 0.1265 µM) | relative viability ([2]; first compound 0.4 µM) | relative viability ([2]; first compound 1.265 µM) | relative viability ([2]; first compound 4 µM) | relative viability ([3]; first compound 0.04 µM) | relative viability ([3]; first compound 0.1265 µM) | relative viability ([3]; first compound 0.4 µM) | relative viability ([3]; first compound 1.265 µM) | relative viability ([3]; first compound 4 µM) |
| --- | --- | --- | --- | --- | --- | --- | --- | --- | --- | --- | --- | --- | --- | --- | --- |
| NCI-H1666 | 1.13 | 0.922 | 0.924 | 0.747 | 0.649 | 0.539 | 0.569 | 0.865 | 0.707 | 0.631 | 0.894 | 0.971 | 0.977 | 0.918 | 0.993 |
| EPLC-272H | 0.282 | 0.301 | 0.169 | 0.187 | 0.125 | 1.28 | 0.829 | 0.947 | 0.954 | 0.775 | 1.02 | 0.93 | 0.868 | 0.888 | 0.58 |
| NCI-H1651 | 0.395 | 0.557 | 0.393 | 0.443 | 0.248 | 1.02 | 0.746 | 0.951 | 0.848 | 0.8 | 0.853 | 0.841 | 0.892 | 0.812 | 0.747 |
| SW 1573 | 0.605 | 0.454 | 0.246 | 0.162 | 0.0823 | 0.829 | 1.04 | 1.17 | 1.18 | 1.19 | 0.881 | 0.754 | 0.728 | 0.673 | 0.622 |
| PC-3 [JPC-3] | 1.01 | 1.02 | 0.843 | 0.857 | 0.483 | 0.435 | 0.487 | 0.481 | 0.454 | 0.434 | 0.982 | 0.943 | 1.07 | 0.962 | 0.819 |
| LOU-NH91 | 0.581 | 0.575 | 0.415 | 0.397 | 0.372 | 0.796 | 0.717 | 0.753 | 0.779 | 0.596 | 0.724 | 0.736 | 0.726 | 0.731 | 0.656 |
| PC-14 | 0.294 | 0.286 | 0.231 | 0.13 | 0.0741 | 0.336 | 0.327 | 0.321 | 0.394 | 0.299 | 0.818 | 0.864 | 0.891 | 0.832 | 0.615 |
| NCI-H2087 | 0.843 | 0.81 | 0.494 | 0.724 | 0.319 | 1.08 | 0.914 | 0.905 | 0.798 | 0.247 | 0.801 | 0.828 | 0.781 | 0.867 | 0.283 |
| LU99A | 0.518 | 0.528 | 0.387 | 0.298 | 0.215 | 1.02 | 0.872 | 1.11 | 0.81 | 0.426 | 0.613 | 0.534 | 0.47 | 0.506 | 0.249 |
| BEN | 0.3 | 0.322 | 0.265 | 0.313 | 0.184 | 0.731 | 0.5 | 0.672 | 0.793 | 0.661 | 0.81 | 0.722 | 0.713 | 0.979 | 0.685 |
| SK-LU-1 | 0.155 | 0.168 | 0.146 | 0.161 | 0.126 | 0.799 | 0.841 | 0.888 | 0.698 | 0.569 | 0.862 | 0.667 | 1.07 | 0.675 | 0.556 |
| NCI-H1975 | 0.479 | 0.396 | 0.373 | 0.328 | 0.257 | 0.941 | 0.75 | 0.906 | 0.714 | 0.494 | 0.985 | 0.863 | 0.972 | 0.939 | 0.691 |
| RERF-LC-KJ | 0.902 | 0.908 | 0.526 | 0.648 | 0.316 | 0.966 | 0.79 | 0.808 | 0.809 | 0.765 | 0.875 | 0.815 | 0.835 | 0.792 | 0.758 |
| HCC-78 | 0.341 | 0.669 | 0.294 | 0.25 | 0.218 | 0.628 | 0.35 | 0.718 | 0.672 | 0.0936 | 0.362 | 0.341 | 0.345 | 0.338 | 0.307 |
| NCI-H1915 | 0.37 | 0.272 | 0.243 | 0.236 | 0.191 | 1.06 | 0.984 | 1.03 | 0.875 | 0.813 | 0.906 | 0.884 | 0.915 | 0.857 | 0.72 |
